Reference: patent US10149809B2, “Skin aging inhibitor and concentrate of resveratrol 3-O-α-glucoside” (priority 2014, dated 2018)
In brackets after ≈: the same amount, converted by molar mass.

Tests used:
[1] = Storage stability in 30 vol % aqueous ethanol (coloration, residual content); type: physicochemical; conditions: 2 mM in 30 vol % aqueous ethanol, 40° C., light-tight, 6 months; for Residual Content (%): HPLC
Method: Each of resveratrol 3-O-α-glucoside (produced in Production Example 1), resveratrol (Tokyo Chemical Industry Co., Ltd.), and resveratrol 4′-O-α-glucoside (produced in Production Example 1) was dissolved in a 30 vol % aqueous solution of ethanol to a concentration of 2 mM, and the solution was stored at 40° C. under light-tight conditions. The coloration of the solution after being stored for 6 months was visually observed. Further, absorbances at 430 nm of the solution before and after the storage were measured, and the residual amount of each of the components in the solution was analyzed using HPLC. HPLC was performed under the same conditions as those described in Production Example 1.

[2] = Solubility in water; type: physicochemical; conditions: water
Method: (§1) Approximately 5 mg each of resveratrol 3-O-α-glucoside, resveratrol (Tokyo Chemical Industry Co., Ltd.), and resveratrol 3-O-β-glucoside (Tokyo Chemical Industry Co., Ltd.) was weighed, approximately 1 mL of water was added thereto, and the mixture was soaked in a water bath at 25° C. under light-tight conditions, and incubated for 20 hours with occasional stirring. After 20 hours, each of the samples was filtered through a 0.45 μm centrifugal filter, and then the concentration of each of the components in the filtrate was analyzed using HPLC under the same conditions as those described in Production Example 1 above. The dissolved concentration (w/v %) in water at 25° C. was thus determined.

[3] = Solubility in solvent containing dipropylene glycol; type: physicochemical; conditions: 25 °C, water, thermodynamic from solid
Method: as §1, with “Approximately 40” for “Approximately 5”, “approximately 70 mg” for “approximately 1 mL”, “of a solvent (whose composition is shown in Table 18) containing ethanol (Wako Pure Chemical Industries, Ltd.)” for “of water”, “for 15” for “for 20”, “After 15” for “After 20”, “%)” for “%) in water”
The solubility of resveratrol 3-O-α-glucoside was evaluated under the same conditions as those described in Example 18 above, except that a solvent (whose composition is shown in Table 22) containing dipropylene glycol (Asahi Glass Co., Ltd.) was used.

[4] = system: skin model (EPI-200X; MatTek); type: in vitro ADME, human; conditions: human, 20 h, 0.2 wt %
Method: Using a three-dimensional human skin model, permeabilities of resveratrol 3-O-α-glucoside and resveratrol into the skin model when administered via the skin surface were compared.
Resveratrol 3-O-α-glucoside or resveratrol (Tokyo Chemical Industry Co., Ltd.) was prepared into a 0.2 wt % solution or suspension with the addition of PBS, and the resulting solution was used as a test substance. The skin model (EPI-200X; MatTek) was loaded into a special fixture (EPI-100-FIX; MatTek), and placed in the 6-well plate of the receiver. One-hundred microliters of the test substance were added to the horny layer side, and 5 mL of PBS was added to the receiver side. After being allowed to stand at 37° C. for 20 hours, the skin model was collected, and the surface of the skin model was washed well with PBS. The skin model after being washed was homogenized in PBS. After the homogenate was centrifuged, resveratrols in the supernatant were quantified using HPLC under the same conditions as described in Production Example 1 above, and the amount of resveratrols was converted into the equivalent of agly cones.

[5] = system: skin model (MEL-312B; MatTek); assay: Melanogenesis suppressing effect in skin model (amount of melanin, visual observation); type: cell-based; conditions: 0.2 wt % in PBS, 50 μL, 16 days; PBS control group = 100%
Method: Resveratrol 3-O-α-glucoside, resveratrol (Tokyo Chemical Industry Co., Ltd.), or resveratrol 3-O-β-glucoside (Tokyo Chemical Industry Co., Ltd.) was prepared into a 0.2 wt % solution or suspension with the addition of PBS, and the resulting solution or suspension was used as a test substance. A skin model (MEL-312B; MatTek) was used, and 50 μL of the test substance was added to the horny layer side of the skin model and cultured in a special medium (EPI-100NMM-113; MatTek) at 37° C. for 16 days. On days 2, 4, 7, 9, 11, and 14, the medium and the test substance were replaced with fresh ones. As a control group, the same operation was performed using PBS instead of the test substance.
After 16 days of culture, the skin model was visually observed, and the amount of melanin in the skin model was evaluated. The amount of melanin was measured using the following method. Initially, the collected skin model was subjected to enzymatic degradation by proteinase-K, and was subsequently homogenated in PBS containing 1% triton X-100. Melanin was then extracted by washing with 10% TCA and ethanol. Next, the extracted melanin was dissolved in 0.5 mL of 1N-NaOH containing 10% DMSO at 80° C. for 2 hours, and the amount of melanin was quantified by measuring absorbance at 470 nm.
Resveratrol 3-O-α-glucoside was prepared into a 0.2 wt % solution, a 0.1 wt % solution, or a 0.01 wt % solution with the addition of PBS. The resulting solution was used as a test substance, and the melanogenesis suppressing effect was evaluated using the same method as that of Example 1 above. […]

Row | Compound | Coloration: Difference between Absorbances at 430 nm (Δ A 430) before and after Storage [1] | Coloration: Visual Observation [1] | Residual Content (%) [1] [%] | Dissolved Concentration (μg/mL) in Water ([2]; 25° C., 20 hours) [µg/mL] | solubility thermodynamic at 15 h [3] [µg/mL] | Concentration in the Skin Model (Value Converted into the Equivalent of Aglycones, μg/cm^2) [4] [μg/cm^2] | Relative Amount of Melanin [5] [%] | solubility thermodynamic at 20 h ([2]; 25 °C, thermodynamic from solid) [µg/mL]
1 | OC[C@H]1O[C@H](Oc2ccc(C=Cc3cc(O)cc(O)c3)cc2)[C@H](O)[C@@H](O)[C@@H]1O [Resveratrol 4′-O-α-Glucoside, resveratrol 4′-O-α-glucoside] | 0.21 | slightly colored | 86 | 150 | – | – | – | –
2 | Oc1ccc(C=Cc2cc(O)cc(O)c2)cc1 [Resveratrol, resveratrol] | 1.36 | strongly | 60 | – | 30 (≈ 131 µM) | 7.5 | 63 | 30 (≈ 131 µM)
